The source of these data is patent publication US4857530A, “Substituted quinazolinones as anticancer agents” (Warner-Lambert Company, priority 1987, dated 1989).

Bounds are passed on as bounds.

In data set [1] the target is T1, Thymidylate synthase isolated from L1210 murine leukemia cells (Mus musculus, UniProt P07607).
T1 construct: endogenous in cells
Description: inhibition of thymidylate synthase (tritium release assay). In kind it is biochemical. The conditions noted are these: 50 μ molar deoxyuridine, 100 μmolar 5,10-methylene-tetrahydrofolate. On the procedure:
The compounds of formula I are valuable anticancer agents. The tests employed indicate that compounds of formula I inhibit the enzyme thymidylate synthase. Thymidylate synthase catalyzes the methylation of deoxyuridine monophosphate to thymidine monophosphate and therefore plays a key role in the synthesis of the only nucleotide required exclusively for deoxyribonucleic acid (DNA) synthesis. […] Thus, the compounds of formula I were tested for their ability to inhibit thymidylate synthase. […] Inhibition of thymidylate synthetase by the new quinazoline antifolate CB3717: enzyme purification and kinetics. In: […]., Simmonds, H. A., Muller, M. M. (eds.) "Purine metabolism in man, IV part B. Biochemical, immunological and cancer research." Plenum Publishing Corp., New York, 1984, pp. 375-378. Thymidylate synthase enzyme activity was determined by the tritium release assay method described by Roberts, Biochemistry, 5:3546-3548 (1966).

The test system of data set [2] is L1210 murine leukemia cell line. As to the kind of experiment: growth inhibition of L1210 murine leukemia cell line in vitro. The conditions noted are these: Mus musculus, L1210, 72 h. Format: cell-based. How it is done: The compounds of formula I were also tested against the L1210 murine leukemia cell line in vitro.
A cell culture of the L1210 murine leukemia cell line is grown in RPMI 1640 culture medium supplemented with 5% fetal bovine serum containing gentamicin (50 micrograms per milliliter). Dilutions of the test compound are prepared in the appropriate solvent and 20 microliters of each dilution are added to a 24-well Linbro tissue culture plate, followed by the addition of 2.0 ml of cell suspension containing 3×10^4 cells/milliliter. Solvent and medium controls are included in each test.
After incubation at 37° C. for three days in 5% CO2, the contents of each well are removed and the cells are counted in a ZBI Coulter counter.

In another data set the test system is TS. The conditions noted are these: cited from earlier work.
In data set [3] the test system is ovarian and breast cancer. The conditions noted are these: cited from earlier work.
The conditions of data set [4]: cited from earlier work.
The test system of data set [5] is cells made resistant to the classical DHFR inhibitor methotrexate. The conditions noted are these: cited from earlier work.

T1 sequence (P07607 whole entry): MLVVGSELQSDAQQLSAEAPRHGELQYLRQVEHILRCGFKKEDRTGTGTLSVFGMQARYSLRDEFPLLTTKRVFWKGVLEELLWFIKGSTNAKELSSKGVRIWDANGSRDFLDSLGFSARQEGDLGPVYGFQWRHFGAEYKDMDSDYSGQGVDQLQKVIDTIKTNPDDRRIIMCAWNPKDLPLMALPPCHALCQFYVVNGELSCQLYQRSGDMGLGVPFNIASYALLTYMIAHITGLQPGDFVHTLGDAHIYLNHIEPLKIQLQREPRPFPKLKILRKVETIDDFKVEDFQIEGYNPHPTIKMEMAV

In the case of `C#CCN(Cc1ccc2nc(N)[nH]c(=O)c2c1)c1ccc(C(C)=O)cc1` [Example 2j, 6-[[(4-Acetylphenyl)-2-propynylamino]methyl]-2-amino-4(3H)-quinazolinone], the IC50 turned out to be 0.77 µM in data set [1] and 4.3 µM in data set [2].

`C#CCN(Cc1ccc2nc(N)nc(O)c2c1)c1cc(OC)c(OC)c(OC)c1` [Example 2l, 2-Amino-6-[[2-propynyl(3,4,5-trimethoxyphenyl)amino]methyl]-4(3H)-quinazolinone]: the IC50 in data set [1] is 50 µM; in data set [2], over 20 µM.

Regarding `C#CCN(Cc1ccc2nc[nH]c(=O)c2c1)c1ccc(Cl)c(Cl)c1` [Example 2a, 6-[[(3,4-Dichlorophenyl)-2-propynylamino]methyl]-4(3H)-quinazolinone], the figures for the IC50 in data set [1] and in data set [2] were 11 µM and 4 µM, respectively.

For `C#CCN(Cc1ccc2nc(N)nc(O)c2c1)c1ccc(Cl)c(Cl)c1` [Example 2g, 2-Amino-6-[[(3,4-Dichlorophenyl)-2-propynylamino]methyl]-4(3H)-quinazolinone], the IC50 was found to be 5 µM in data set [1] and 12.6 µM in data set [2].

Regarding `C#CCN(Cc1ccc2nc(N)[nH]c(=O)c2c1)c1ccc(C(N)=O)cc1` [Example 2d, 4-[[(2-Amino-3,4-dihydro-4-oxo-6-quinazolinyl)methyl]-2-propynylamino]benzamide], the IC50 is 0.64 µM in data set [1] and over 20 µM in data set [2].

On to `C#CCN(Cc1ccc2nc(N)[nH]c(=O)c2c1)c1ccc(C(=O)O)cc1` [formula A; R=OH], for which the “decrease of TS inhibition over the classical antifolate analog on removal of the glutamate residue” value in the data set on TS (Jones et al, J. Med. Chem. 29, 1114-1118 (1986)) was 84 fold.

For `C#CCN(Cc1ccc2nc(N)nc(O)c2c1)c1ccc(C(=O)N[C@@H](CCC(=O)O)C(=O)O)cc1` [CB 3717, N-(4(N-((2-amino-4-hydroxy-6-quinazolinyl)methyl)prop-2-ynylamino)benzoyl)-L-glutamic acid], the “TS inhibition (in words)” value with TS (background) is listed as “selective, tight binding TS inhibitor”. The liver toxicity entry in data set [3] (Phase I clinical trials) is recorded as “nondose related liver toxicity”. The kidney toxicity entry in data set [3] (Phase I clinical trials, due in part to poor solubility) is “dose limiting kidney toxicity”. Moreover, in data set [3] (Phase I, patients with ovarian and breast cancer), the clinical responses result was “Minor and partial clinical responses”. In addition, the solubility result in data set [4] is “poor solubility”.

For the molecule `C#CCN(Cc1ccc2nc(N)[nH]c(=O)c2c1)c1ccc(C#N)cc1` [Example 2e, 4-[[(2-Amino-3,4-dihydro-4-oxo-6-quinazolinyl)methyl]-2-propynylamino]benzonitrile], the half-maximal inhibitory concentration (IC50) is 1.3 µM in data set [1] and 5.9 µM in data set [2].

Turning to `COc1cc(NCc2ccc3nc(N)nc(N)c3c2C)cc(OC)c1OC` [trimetrexate], the “circumvention of impaired transport resistance” value in data set [5] was “shown to circumvent the impaired transport”.

With `C#CCN(Cc1ccc2nc[nH]c(=O)c2c1)c1cc(OC)c(OC)c(OC)c1` [Example 2c, 6-[[2-Propynyl-(3,4,5-trimethoxyphenyl)amino]methyl]-4(3H)-quinazolinone], the IC50 in data set [1] was 96 µM; in data set [2], over 10 µM.

`C#CCN(Cc1ccc2nc(N)[nH]c(=O)c2c1)c1ccc(S(=O)(=O)N(C)C)cc1` [Example 2n, 4-[[(2-Amino-3,4-dihydro-4-oxo-6-quinazolinyl)methyl]-2-propynylamino]-N,N-dimethylbenzenesulfonamide]: the IC50 in data set [1] was 1 µM; in data set [2], 4.1 µM.

In the case of `C#CCN(Cc1ccc2nc(N)[nH]c(=O)c2c1)c1ccc(OC(F)(F)F)cc1` [Example 2h, 2-Amino-6-[[2-propynyl[4-(trifluoromethoxy)phenyl]amino]methyl]-4(3H)-quinazolinone], the IC50 worked out at 11.3 µM in data set [1] and 25.1 µM in data set [2].

Turning to `C#CCN(Cc1ccc2nc[nH]c(=O)c2c1)c1ccc(C(C)=O)cc1` [Example 2, 6-[[(4-Acetylphenyl)-2-propynylamino]methyl]-4(3H)-quinazolinone], the results for the IC50 in data set [1] and in data set [2] were 2.4 µM and 7 µM, respectively.

For the molecule `C#CCN(Cc1ccc2nc(N)[nH]c(=O)c2c1)c1ccc(C(=O)C(F)(F)F)cc1` [Example 2k, 2-Amino-6-[[2-propynyl[4-(trifluoroacetyl)phenyl]amino]methyl]-4(3H)-quinazolinone], the IC50 was 0.51 µM in data set [1] and 11.8 µM in data set [2].

As to `C#CCN(Cc1ccc2nc(N)[nH]c(=O)c2c1)c1ccc([N+](=O)[O-])cc1` [Example 2i, 2-Amino-6-[[(4-nitrophenyl)-2-propynylamino]methyl]-4(3H)-quinazolinone], the IC50 turned out to be 0.62 µM in data set [1] and 2.4 µM in data set [2].

In the case of `C#CCN(Cc1ccc2nc(N)[nH]c(=O)c2c1)c1ccc(F)cc1` [Example 2f, 2-Amino-6-[[(4-fluorophenyl)-2-propynylamino]methyl]-4(3H)-quinazolinone], in data set [1], half-maximal inhibition (IC50) required 11.5 µM.
